Among the data in patent US10913742B2, “Oxadiazolones as transient receptor potential channel inhibitors” (Genentech, Inc., priority 2017, dated 2021) are IC50 values, retold here.

Molecules are shown by their SMILES.

human TRPA1, sequence (O75762 whole entry): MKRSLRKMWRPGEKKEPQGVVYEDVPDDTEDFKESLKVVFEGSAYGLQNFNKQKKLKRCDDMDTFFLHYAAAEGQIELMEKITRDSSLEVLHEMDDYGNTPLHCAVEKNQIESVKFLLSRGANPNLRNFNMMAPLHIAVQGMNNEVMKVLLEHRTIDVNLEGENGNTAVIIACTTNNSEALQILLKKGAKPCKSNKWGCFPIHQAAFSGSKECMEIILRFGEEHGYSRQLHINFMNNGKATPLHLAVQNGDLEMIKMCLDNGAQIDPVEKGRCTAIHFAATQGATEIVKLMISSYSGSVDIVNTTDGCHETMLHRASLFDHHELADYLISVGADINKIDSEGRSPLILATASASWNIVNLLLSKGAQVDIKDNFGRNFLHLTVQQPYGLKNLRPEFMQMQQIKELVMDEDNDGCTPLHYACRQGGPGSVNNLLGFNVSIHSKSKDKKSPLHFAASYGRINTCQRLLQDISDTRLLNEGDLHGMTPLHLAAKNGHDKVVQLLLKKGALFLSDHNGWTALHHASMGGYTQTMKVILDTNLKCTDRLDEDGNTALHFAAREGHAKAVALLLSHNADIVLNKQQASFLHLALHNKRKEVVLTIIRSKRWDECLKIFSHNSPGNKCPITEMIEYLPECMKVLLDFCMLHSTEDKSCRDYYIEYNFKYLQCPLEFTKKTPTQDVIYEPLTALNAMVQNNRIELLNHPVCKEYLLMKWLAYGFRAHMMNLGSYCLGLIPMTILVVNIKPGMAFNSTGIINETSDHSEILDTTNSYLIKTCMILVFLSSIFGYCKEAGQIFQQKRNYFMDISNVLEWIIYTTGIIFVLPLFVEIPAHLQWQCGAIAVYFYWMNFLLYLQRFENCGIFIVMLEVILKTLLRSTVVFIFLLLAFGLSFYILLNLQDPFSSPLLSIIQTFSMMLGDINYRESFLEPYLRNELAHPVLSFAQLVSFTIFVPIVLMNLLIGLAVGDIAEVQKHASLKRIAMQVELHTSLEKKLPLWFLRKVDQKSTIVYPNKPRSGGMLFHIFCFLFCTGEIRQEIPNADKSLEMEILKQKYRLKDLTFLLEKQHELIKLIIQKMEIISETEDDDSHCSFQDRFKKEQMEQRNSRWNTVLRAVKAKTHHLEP

This test addresses human TRPA1 (Homo sapiens (Human), UniProt O75762). The experiment in a line: hTRPA1 CHO Ca2+ FLIPR assay (block of cinnamaldehyde induced calcium influx). Type of test: cell-based. The conditions noted are these: CHO cells expressing TRPA1; 75 uM cinnamaldehyde; Hill coefficient fixed to 1.5; read-out: hTRPA1 (hTRPA1 CHO Ca2+ MAX EVO (IC50)). The procedure:
CHO cells expressing TRPA1 were plated into 384-well plates, incubated overnight at 37° C., and loaded with BD calcium indicator dye for 1 hr at 37° C. followed by 15 minutes at room temperature. The assay buffer was Hank's Balanced Salt Solution (HBSS) containing 20 mM HEPES (pH readjusted to 7.4) along with 0.02% BSA.
Following dye load and plate cool down, compounds were added to the cells using FLIPR Tetra. Plates were then incubated with compounds for 20 minutes at room temperature prior to adding agonist.
The IC50 results were fit with a standard Hill function, keeping the Hill coefficient (n) fixed to 1.5. Fixing the Hill coefficient will generally reduce variability of the IC50 determination. The IC50 results were individually examined to make sure the MIN and MAX points were set correctly prior to validation of the results.
A word on the IC50: it is the point on the concentration scale where inhibition reaches its midpoint. Regarding `Cn1cnc2ncn(Cc3nn([C@H]4C[C@H](c5ccc(OC(F)F)cc5)C4)c(=O)o3)c(=O)c21` [compound 103, 3-[3-[(trans)-4-(difluoromethoxy)phenyl]cyclobutyl]-5-[(7-methyl-6-oxo-purin-1-yl)methyl]-1,3,4-oxadiazol-2-one], the IC50 amounted to 26 nM.

With `Cn1c(=O)ccc2ncn(Cc3nn(C[C@H](F)c4ccc(Cl)cc4)c(=O)o3)c(=O)c21` (racemic) [compound 87, 5-methyl-3-[[5-oxo-4-[rac-(2R)-2-(4-chlorophenyl)-2-fluoro-ethyl]-1,3,4-oxadiazol-2-yl]methyl]pyrido[3,2-d]pyrimidine-4,6-dione], the IC50 amounted to 43.8 nM.

Take `O=c1c2c(Cl)ccnc2ncn1Cc1nn([C@H]2C[C@H](c3ccc(Cl)cc3)C2)c(=O)o1` [compound 73, 5-[(5-chloro-4-oxo-pyrido[2,3-d]pyrimidin-3-yl)methyl]-3-[3-(4-chlorophenyl)cyclobutyl]-1,3,4-oxadiazol-2-one]: the IC50 came out at 5.88 nM.

With `Cn1cnc2ncn(Cc3nn(CCc4ccc(Cl)cc4)c(=O)o3)c2c1=O` [compound 26, 7-([4-[2-(4-chlorophenyl)ethyl]-5-oxo-4,5-dihydro-1,3,4-oxadiazol-2-yl]methyl)-1-methyl-6,7-dihydro-1H-purin-6-one], the concentration for half-maximal inhibition (IC50) turned out to be 737 nM.

Turning to `Cc1ccc(=O)n2ccn(Cc3nn([C@H]4C[C@H](c5ccc(Cl)cc5)C4)c(=O)o3)c(=O)c12` [compound 58, 2-[[4-[3-(4-chlorophenyl)cyclobutyl]-5-oxo-1,3,4-oxadiazol-2-yl]methyl]-9-methyl-pyrido[1,2-a]pyrazine-1,6-dione], the IC50 amounted to 40.3 nM.

As for `Cc1nc(C)n2ncn(Cc3nn(CCc4ccc(Cl)cc4)c(=O)o3)c(=O)c12` [compound 13, 3-(4-chlorophenethyl)-5-((5,7-dimethyl-4-oxoimidazo[1,5-f][1,2,4]triazin-3(4H)-yl)methyl)-1,3,4-oxadiazol-2(3H)-one], the IC50 came to 265 nM.

As for `Cc1cc(C#N)nc2ncn(Cc3nn([C@H]4C[C@H](c5ccc(Cl)cc5)C4)c(=O)o3)c(=O)c12` [compound 93, trans-3-[[4-[3-(4-chlorophenyl)cyclobutyl]-5-oxo-1,3,4-oxadiazol-2-yl]methyl]-5-methyl-4-oxo-pyrido[2,3-d]pyrimidine-7-carbonitrile], the IC50 is 4.84 nM.

For `Cn1cnc2ncn(Cc3nn(CCc4ccc(Br)cc4)c(=O)o3)c(=O)c21` [compound 3, 3-(4-bromophenethyl)-5-((7-methyl-6-oxo-6H-purin-1(7H)-yl)methyl)-1,3,4-oxadiazol-2(3H)-one], the IC50 was found to be 44 nM.

For the compound `Cc1ccnc2ncn(Cc3nn([C@H]4C[C@](F)(c5ccc(Cl)cc5)C4)c(=O)o3)c(=O)c12` [compound 104, 3-[3-(4-chlorophenyl)-3-fluoro-cyclobutyl]-5-[(5-methyl-4-oxo-pyrido[2,3-d]pyrimidin-3-yl)methyl]-1,3,4-oxadiazol-2-one], the half-maximal inhibitory concentration (IC50) worked out at 29.6 nM.

As for `Cc1ccnc2ncn(Cc3nn([C@H]4C[C@@](F)(c5ccc(C(F)(F)F)cc5)C4)c(=O)o3)c(=O)c12` [compound 99, 3-[3-fluoro-3-[4-(trifluoromethyl)phenyl]cyclobutyl]-5-[(5-methyl-4-oxo-pyrido[2,3-d]pyrimidin-3 yl)methyl]-1,3,4-oxadiazol-2-one], the IC50 came out at 57.3 nM.

In the case of `Cn1cc(C#N)c2ncn(Cc3nn(CCc4ccc(Cl)cc4)c(=O)o3)c(=O)c21` [compound 56, 3-((4-(4-chlorophenethyl)-5-oxo-4,5-dihydro-1,3,4-oxadiazol-2-yl)methyl)-5-methyl-4-oxo-4,5-dihydro-3H-pyrrolo[3,2-d]pyrimidine-7-carbonitrile], the IC50 was 168 nM.

Consider `Cc1ccnc2ncn(Cc3nn(CC(F)c4ccc(Cl)cc4)c(=O)o3)c(=O)c12` (stereo in doubt) [compound 33, 5-[(5-methyl-4-oxo-pyrido[2,3-d]pyrimidin-3-yl)methyl]-3-[(2R)-2-(4-chlorophenyl)-2-fluoro-ethyl]-1,3,4-oxadiazol-2-one], for which the IC50 was determined as 180 nM.

Consider `O=c1c2cccnc2ncn1Cc1nn(C[C@H](F)c2ccc(OC(F)F)cc2)c(=O)o1` (racemic) [compound 81, 5-[(4-oxopyrido[2,3-d]pyrimidin-3-yl)methyl]-3-[rac-(2R)-2-[4-(difluoromethoxy)phenyl]-2-fluoro-ethyl]-1,3,4-oxadiazol-2-one], for which the 50% inhibitory concentration (IC50) stood at 50 nM.

Turning to `Cn1cnc2ncn(Cc3nn([C@@H]4CC[C@@H](c5cccc(F)c5)C4)c(=O)o3)c(=O)c21` (racemic) [compound 76, 5-[(7-methyl-6-oxo-purin-1-yl)methyl]-3-[rac-(1R,3R)-3-(3-fluorophenyl)cyclopentyl]-1,3,4-oxadiazol-2-one], the concentration for half-maximal inhibition (IC50) was found to be 75.8 nM.

Turning to `Cc1ccnc2ncn(Cc3nn([C@H]4C[C@](F)(c5cccc(F)c5)C4)c(=O)o3)c(=O)c12` [compound 75, 3-[3-fluoro-3-(3-fluorophenyl)cyclobutyl]-5-[(5-methyl-4-oxo-pyrido[2,3-d]pyrimidin-3-yl)methyl]-1,3,4-oxadiazol-2-one], the IC50 came out at 40.5 nM.

Consider `Cc1ccnc2ncn(Cc3nn([C@H]4C[C@H](c5ccc(F)cc5)C4)c(=O)o3)c(=O)c12` [compound 88, 3-[3-(4-fluorophenyl)cyclobutyl]-5-[(5-methyl-4-oxo-pyrido[2,3-d]pyrimidin-3-yl)methyl]-1,3,4-oxadiazol-2-one], for which the IC50 was found to be 5.76 nM.

As for `COc1ccc([C@H]2C[C@H](n3nc(Cn4cnc5ncn(C)c5c4=O)oc3=O)C2)cc1` [compound 54, 3-(3-(4-methoxyphenyl)cyclobutyl)-5-((7-methyl-6-oxo-6,7-dihydro-1H-purin-1-yl)methyl)-1,3,4-oxadiazol-2(3H)-one], the IC50 turned out to be 105 nM.

With `Cn1cnc2ncn(Cc3nn([C@H]4CC[C@H](c5ccccc5)C4)c(=O)o3)c(=O)c21` (racemic) [compound 108, 5-[(7-methyl-6-oxo-purin-1-yl)methyl]-3-[rac-(1S,3S)-3-phenylcyclopentyl]-1,3,4-oxadiazol-2-one], the IC50 worked out at 156 nM.

Turning to `Cc1ccc(CCn2nc(Cn3cnc4ncn(C)c4c3=O)oc2=O)cc1` [compound 31, 5-[(7-methyl-6-oxo-purin-1-yl)methyl]-3-[2-(p-tolyl)ethyl]-1,3,4-oxadiazol-2-one], the IC50 turned out to be 126 nM.

`Cc1ccnc2ncn(Cc3nn(C[C@H](F)c4ccc(OC(F)F)cc4)c(=O)o3)c(=O)c12` (racemic) [compound 80, 5-[(5-methyl-4-oxo-pyrido[2,3-d]pyrimidin-3-yl)methyl]-3-[rac-(2R)-2-[4-(difluoromethoxy)phenyl]-2-fluoro-ethyl]-1,3,4-oxadiazol-2-one]: the IC50 came out at 11.9 nM.

For the compound `Cn1cnc2ncn(Cc3nn([C@H]4C[C@H](c5ccc(Br)cc5)C4)c(=O)o3)c(=O)c21` [compound 52, 3-[3-(4-bromophenyl)cyclobutyl]-5-[(7-methyl-6-oxo-purin-1-yl)methyl]-1,3,4-oxadiazol-2-one], the IC50 stood at 20 nM.

For the compound `CN(C)c1ccc(CCn2nc(Cn3cnc4ncn(C)c4c3=O)oc2=O)cc1` [compound 17, 3-(4-(dimethylamino)phenethyl)-5-((7-methyl-6-oxo-6H-purin-1(7H)-yl)methyl)-1,3,4-oxadiazol-2(3H)-one], the IC50 was determined as 164 nM.

For `Cc1cc(CCn2nc(Cn3cnc4ncn(C)c4c3=O)oc2=O)ccc1Cl` [compound 39, 3-(4-chloro-3-methylphenethyl)-5-((7-methyl-6-oxo-6H-purin-1(7H)-yl)methyl)-1,3,4-oxadiazol-2(3H)-one], the IC50 turned out to be 113 nM.

Take `Cn1cnc2ncn(Cc3nn([C@@H]4CC[C@@H](c5ccc(Cl)cc5)C4)c(=O)o3)c(=O)c21` [compound 100, 5-[(7-methyl-6-oxo-purin-1-yl)methyl]-3-[(1R,3R)-3-(4-chlorophenyl)cyclopentyl]-1,3,4-oxadiazol-2-one]: the IC50 came out at 9.59 nM.

As for `Cn1cnc2ncn(Cc3nn(CCc4ccc5ccc(C#N)cc5c4)c(=O)o3)c(=O)c21` [compound 36, 7-[2-[5-[(7-methyl-6-oxo-purin-1-yl)methyl]-2-oxo-1,3,4-oxadiazol-3-yl]ethyl]naphthalene-2-carbonitrile], the IC50 is 120 nM.

Consider `Cn1cnc2ncn(Cc3nn(C[C@H](F)c4cccc(Cl)c4)c(=O)o3)c(=O)c21` (racemic) [compound 84, 5-[(7-methyl-6-oxo-purin-1-yl)methyl]-3-[rac-(2R)-2-(3-chlorophenyl)-2-fluoro-ethyl]-1,3,4-oxadiazol-2-one], for which the IC50 came to 166 nM.

Turning to `Cc1cc(C#N)nc2ncn(Cc3nn(CCc4ccc(Cl)cc4)c(=O)o3)c(=O)c12` [compound 28, 3-((4-(4-chlorophenethyl)-5-oxo-4,5-dihydro-1,3,4-oxadiazol-2-yl)methyl)-5-methyl-4-oxo-3,4-dihydropyrido[2,3-d]pyrimidine-7-carbonitrile], the IC50 came to 9 nM.

Turning to `Cn1cnc2ncn(Cc3nn(CCc4ccc(C(F)(F)F)cc4)c(=O)o3)c(=O)c21` [compound 9, 5-((7-methyl-6-oxo-6H-purin-1(7H)-yl)methyl)-3-(4-(trifluoromethyl)phenethyl)-1,3,4-oxadiazol-2(3H)-one], the IC50 was determined as 582 nM.

For the compound `Cn1cnc2ncn(Cc3nn([C@H]4C[C@H](c5ccc(C#N)cc5)C4)c(=O)o3)c(=O)c21` [compound 71, 4-[3-[5-[(7-methyl-6-oxo-purin-1-yl)methyl]-2-oxo-1,3,4-oxadiazol-3-yl]cyclobutyl]benzonitrile], the IC50 was 59.7 nM.

As to `Cn1cnc2ncn(Cc3nn(CCc4ccc(OC(F)F)cc4)c(=O)o3)c(=O)c21` [compound 2, 3-(4-(difluoromethoxy)phenethyl)-5-((7-methyl-6-oxo-6H-purin-1(7H)-yl)methyl)-1,3,4-oxadiazol-2(3H)-one], the IC50 stood at 211 nM.
